Source: patent publication US12449422B2, “Method and composition matter for immunoproteasome-mediated delivery into living cells” (Purdue Research Foundation, priority 2019, dated 2025)
Blank lines part the entries; values can stand above or below the molecule they belong to. No end group written: not given here.

Tests used:
A549 cells [1] = experiment: Cell Titer-Glo luminescent cell viability assay; assay type: cell-based
Method: A549 cells were treated with 5 ng/mL IFN-γ for 4 days then split into a black 96-well plate at a density of 5,000 cells/well along with non-IFN-γ treated cells. Cells were allowed to adhere overnight before performing assays. The media was removed and fresh media (50 μL) was added to each well. Each probe was added to each well at the corresponding concentration and the plate was returned to the incubator for the given amount of time. To remove any signal due to FBS in the media, the media was removed and cells were washed with PBS (3 times). After the final wash, PBS (50 μL) was added to each well. The plate was incubated at 37° C. in the plate reader, monitoring the change in fluorescence (Ex—485(20) nm, Em—535(20) nm for Rh-probes; gain=90). Samples were run in five replicates and any outliers (outside the range of average±standard deviation) were removed (no more than two replicates per sample were removed). […] To ensure that observed differences in fluorescence were not due to a difference in total cells or cell viability, a Cell Titer-Glo® luminescent cell viability assay (Promega) was performed in a separate white 96 well plate using the same conditions per the manufacturer's protocol. Luminescence was recorded using a BioTek Synergy™ Neo2 Multimode Microplate Reader. […]

sCP [2] = biological target: T1, sCP (Homo sapiens, UniProt P28074); experiment: LC/MS analysis of TBZ1 cleavage with purified sCP; assay type: biochemical; details: 31 μM, 9 nM sCP, 55 min, 37° C.
T1 construct: purchased Boston Biochem
Text: (§1) We first analyzed TBZ1 in the same conditions as the biochemical assay without any iCP to confirm there was not any non-specific degradation occurring during the LC/MS run. In this, we only observed the two isomers of our probe. After treatment with the iCP, we observed two new peaks in the TIC spectrum. These corresponded to the expected Rh-peptoid and peptide fragments. The full mass of TBZ1 was extracted from each triplicate and compared between iCP and sCP samples. […] When this analysis was performed using sCP, we observed that 77% remained uncleaved.
(§2) In the same way as the biochemical assays (FIG. 11), TBZ1 (31 μM) was incubated at 37° C. with or without purified proteasome (9 nM) in 50 mM tris HCl buffer (pH 7.6) for 55 min in triplicate. After incubation, samples were quenched by adding 50 μL of HPLC-grade acetonitrile. The samples were dried under vacuum then resuspended in 50/50 water/acetonitrile with 0.1% formic acid (100 μL). Samples (50 μL) were analyzed by LC/MS (Agilent 1260 Infinity II with a Zorbax Eclipse Plus C18 column, 2.1×50 mm, 1.8-micron attached to an Agilent 6129 quadrupole mass spectrometer). […] Percent TBZ1 remaining in treated samples was determined by comparing the averages of untreated vs. treated samples.

A549 cells [3] = experiment: Cellular assay with TBZ1, plate-reader fluorescence; assay type: cell-based; details: 31 μM TBZ1, 15 and 60 min
Method: To determine the selectivity of TBZ1 in cells, both untreated cells and cells treated with IFN-γ were plated at the same cell density into a 96-well plate for fluorescence readouts. After allowing sufficient time for the cells to adhere to the wells, TBZ1 was added and allowed to incubate for various time points. Following the initial incubation, wells were washed with PBS to remove any probe that had not been taken up by the cells and the plate was incubated for an additional hour before the fluorescence was recorded. […] We initially intended to use TBZ4 as a way to confirm that the addition of a peptoid improved cell penetration and protease stability of TBZ1. […]
A549 cells were treated with 5 ng/mL IFN-γ for 4 days then split into a black 96-well plate at a density of 5,000 cells/well along with non-IFN-γ treated cells. […] The plate was incubated at 37° C. in the plate reader, monitoring the change in fluorescence (Ex—485(20) nm, Em—535(20) nm for Rh-probes; gain=90). […] To ensure that observed differences in fluorescence were not due to a difference in total cells or cell viability, a Cell Titer-Glo® luminescent cell viability assay (Promega) was performed in a separate white 96 well plate using the same conditions per the manufacturer's protocol. Luminescence was recorded using a BioTek Synergy™ Neo2 Multimode Microplate Reader. […]

iCP [4] = biological target: T2, iCP (Homo sapiens, UniProt P28062); experiment: LC/MS analysis of TBZ1 cleavage with purified iCP; assay type: biochemical; details: 31 μM, 9 nM iCP, 55 min, 37° C.
T2 construct: purchased Boston Biochem
Text: as §1, §2

A549 cells [5] = experiment: Flow cytometry with TBZ1; assay type: cell-based; details: 31 μM TBZ1, preliminary, single replicate
Method: A549 cells untreated and treated with IFN-γ were each plated into 4 wells of a 12-well plate at 300,000 cells/well. The cells were allowed to adhere overnight. To each well was added fresh media (500 μL) with either DMSO alone or TBZ1 (final concentration=31 μM). The plate was returned to the incubator for an hour. The cells were then washed with PBS (3 times). The plate was incubated for an additional hour in PBS. The cells were removed from each well using trypsin-EDTA solution. After centrifuging and removing the media, the cells were resuspended in PBS. Samples were mixed at a ratio of 1:1 -IFN-γ to +IFN-γ cells then all three samples were analyzed by flow cytometry using a Guava EasyCyte instrument with Guava CytoSoft™ software. Samples were excited with a 488 nm laser and fluorescence intensity was recorded from the 525 nm filter cube. Image analysis was performed using FlowJo v10. Data shown in FIG. 17 is of a single replicate.

IFN-γ treated A549 cells = experiment: Confocal imaging with TBZ1; assay type: cell-based; details: 31 μM TBZ1, one hour, vs DMSO
Method: As an additional way to visualize the cells treated with TBZ1, we analyzed IFN-γ cells using confocal microscopy. Following a similar procedure as the plate reader assay, IFN-γ treated cells were plated on glass coverslip chambers coated with poly-D-lysine and were dosed with TBZ1 (31 μM) or DMSO for one hour. After washing, the cells were returned to the incubator for 30 min before staining with Super Bright 436 HLA-A, B, C antibody to serve as a membrane marker.
After four days of treatment with IFN-γ, A549 cells were plated into 8-well chambered coverglass plates that had been coated with poly-d-lysine (20,000 cells/well). The cells were allowed to adhere overnight then washed once with PBS. Fresh media including 31 μM TBZ1 was added to wells in triplicate and incubated for one hour. After incubation, the cells were washed with PBS (3 times) then kept in 200 μL modified Krebs-Ringer buffer (134 mM NaCl, 3.5 mM KCl, 1.2 mM K2HPO4·3H2O, 0.5 mM MgSO4·7H2O, 1.5 mM CaCl2·2H2O, 5 mM NaHCO3 and 10 mM HEPES, pH 7.4). The samples were returned to the incubator. After 30 min, Super Bright 436 HLA-ABC monoclonal antibody (ThermoFisher #62-9983-42) was added to each well (1 μL/well, 0.1 μg) and the samples were returned to the incubator for an additional 30 min. The samples were again washed with PBS and suspended in modified Krebs-Ringer buffer (200 μL) for imaging. […]

sCP [6] = biological target: T1, sCP; experiment: Hit validation: LC/MS of OVA released from hit peptides by sCP; assay type: biochemical; details: 5.2 μM peptide, 4 nM sCP, 6 hours, 37° C.; vs EIC of control peptide Ala-Ala-Ala-Phe-OVA
Method: (§3) Validation assays were performed under similar conditions as the screen. Briefly, 5 μM of each hit peptide was incubated at 37° C. with 4 nM iCP for six hours in triplicate, then analyzed by LC/MS. All peptides were also analyzed under identical conditions using 4 nM sCP. This was done to confirm that our library design yielded the desired selectivity and not simply sequences that could be efficiently cleaved by either isoform. The mass of OVA was extracted and integrated for each sample, averaging the triplicates. […] Of the nine total hits, six validated successfully. Additionally, all validated hits had at least 1.4-fold selectivity for the iCP (FIG. 4C and FIG. 5). We chose to move forward with the sequence Ala-Thr-Met-Trp, as this not only had highly efficient cleavage by the iCP but also was close to 5-fold selective for the iCP compared to the sCP.
(§4) For validation, purified hit sequences (46 μL final concentration 5.2 μM) in 50 mM tris buffer, pH 7.6 were added to nine wells of a 96 well plate. To each triplicate, 4 μL of tris buffer, 50 nM iCP (final concentration 4 nM) or 50 nM sCP (final concentration 4 nM) was added. This was sealed and allowed to incubate for 6 hours at 37° C. HPLC-grade acetonitrile (50 μL) was added to each sample and the samples were then dried under vacuum. Dried samples were resuspended in 100 μL 50/50 water/acetonitrile with 0.1% formic acid. Each sample was then analyzed by LC/MS with an injection volume of 90 μL. The mass of OVA (887.0-887.9) was extracted. The peak at the same time point as the standard was then integrated and averaged over the triplicate for each sample. Percent change was considered for each triplicate in comparison to the EIC of the control peptide sequence (Ala-Ala-Ala-Phe-OVA). Raw data for integrated OVA peaks can be seen in FIG. 5. Each bar represents an average of triplicates with error bars given as the standard deviation.

iCP [7] = biological target: T2, iCP; experiment: Hit validation: LC/MS of OVA released from hit peptides by iCP; assay type: biochemical; details: for iCP % Change OVA: 5.2 μM peptide, 4 nM iCP, 6 hours, 37° C., vs EIC of control peptide Ala-Ala-Ala-Phe-OVA; for Selectivity: iCP over sCP
Method: as §3, §4

iCP [8] = biological target: T2, iCP; experiment: Biochemical assay with fluorogenic substrate probes and purified proteasome; details: 31 μM probe, 9 nM proteasome, 37° C.
Method: Initially, we treated various concentrations of TBZ1 from 0-250 μM with both the iCP and sCP (FIG. 11). All concentrations were incubated at 37° C. with 9 nM of the respective proteasomes and the increase in fluorescence was monitored for 60 min at 1 min intervals. We found 31 μM of TBZ1 to give a favorable profile, maintaining about a 3:1 selectivity compared to the sCP (FIG. 6).
The remaining probes were studied at 31 μM and monitored for an increase in fluorescence over 30 minutes. […] Finally, we also sought to compare TBZ1 to the commercially available, iCP-selective substrate probe Ac-ANW-AMC.
Each probe was dissolved in DMSO at a proper stock concentration such that the final concentration of DMSO in the sample is 2%. For TBZ1, a two-fold serial dilution was performed to determine the optimal concentration for biochemical assays. Each stock was then diluted in 50 mM tris buffer, pH 7.6 (1 μL stock per 40 μL buffer) and added to a black 96 well plate in triplicate (41 μL per well). Stocks ([…] in 50 mM tris buffer, pH 7.6) of either iCP or sCP was added to each well (9 μL/well, final concentration=9 nM). The change in fluorescence (Ex—485(20) nm, Em—535(20) nm; gain=50) was monitored over time on a Tecan Infinite 200® Pro Microplate Reader. Data was plotted as the average of triplicate samples using GraphPad Prism 7 and can be found in FIG. 11. […]

Molecule: COc1ccc(C[C@H](NC(=O)[C@H](C)NC(=O)CN2CCOCC2)C(=O)N[C@@H](Cc2ccccc2)C(=O)C2(C)CO2)cc1 (stereo in doubt) [ONX-0914]
cell death with ONX-0914 (Cell Titer-Glo) (A549 cells [1]; ONX-0914 20 μM, IFN-γ treated A549 cells): not due to cell death

Molecule: COCCCN(CC(=O)N(CCCN(C)C)CC(N)=O)C(=O)CN(CCCN(C)C)C(=O)CNC(=O)CCC(=O)Nc1ccc2c(c1)Oc1cc(NC(=O)[C@H](Cc3c[nH]c4ccccc34)NC(=O)[C@H](CCSC)NC(=O)[C@@H](NC(=O)[C@H](C)N)C(C)O)ccc1C21OC(=O)c2ccccc21 (stereo partly shown) [TBZ1]
TBZ1 remaining uncleaved with sCP (sCP [2]): 77% | fluorescence signal in IFN-γ treated vs regular A549 cells (A549 cells [3]): significantly increased signal for IFN-γ treated cells | uncleaved TBZ1 remaining in iCP samples (iCP [4]): 31% | cell viability (Cell Titer-Glo) after TBZ1 treatment (A549 cells [1]; untreated vs IFN-γ treated A549 cells): no significant difference | separation of cell populations by flow cytometry (A549 cells [5]): cell populations can be separated based on increasing amounts of iCP-expressing cells | intracellular staining by confocal microscopy (IFN-γ treated A549 cells): increased staining due to probe cleavage within the cell

Molecule: Ala-Ala-Ala-Phe-OVA [reference compound]
sCP % Change OVA (sCP [6]): −25% | iCP % Change OVA (iCP [7]): 0% | Selectivity (iCP [7]; OVA released): 1.3

sCP % Change OVA (sCP [6]): −78% | iCP % Change OVA (iCP [7]): −82% | Selectivity (iCP [7]; OVA released): 0.8
Molecule: His-Gly-Gly

change in fluorescence / cleavage by purified proteasome (iCP [8]): very minimal fluorescence
Molecule: TBZ2 (AEPY; also: ['rhodamine probe conjugate with peptoid group'])

change in fluorescence / cleavage by purified proteasome (iCP [8]): not as efficiently cleaved at TBZ1
Molecule: TBZ4 (ATMW; also: rhodamine probe)

sCP % Change OVA (sCP [6]): +232% | iCP % Change OVA (iCP [7]): +1502% | selectivity for the iCP compared to the sCP (iCP [7]; hit validation, OVA released): ~5 fold | Selectivity (iCP [7]; OVA released): 4.8
Molecule: Thr-Met-Trp: hit peptide: N-terminal Ala, P3-P2-P1 Thr-Met-Trp, attached to modified OVA (ATMW; also: attached to modified OVA)
